Source: patent publication US20160244728A1, “CULTURE METHOD FOR PLURIPOTENT STEM CELLS AND KIT AND MEDIUM FOR CULTURE OF PLURIPOTENT STEM CELLS USED THEREIN” (FUJIFILM Corporation, priority 2013, published 2016)

What was measured:
[1] = tested on: human iPS cells; assay: Growth evaluation in Essential 8 medium with magnesium ascorbyl phosphate; assay type: cell-based; conditions: for number of growing cells depending on the concentration of magnesium ascorbyl phosphate (in words): Tables 10 to 13; for Number of cells after 3 days (%): n=3
Description: The growth of cells was evaluated in the same manner as in Reference example 5.
Magnesium ascorbyl phosphate was added to a medium. […] The samples were adsorbed onto a 96-well plate, and the iPS cells collected in the same manner as in <Cell adhesiveness evaluation 1> were seeded into the plate at a ratio of 1×10^4 cells/well and cultured for 3 days in a 5% CO2 incubator at 37° C. The number of cells after 3 days was measured in the same manner as in <Cell adhesiveness evaluation 1>. Furthermore, by using VTN-N (manufactured by Life Technologies) and Vitronectin-XF (manufactured by Primorigen Biosciences), the growth of the cells was evaluated in the same manner.
The results obtained from RCP-17 are shown in Table 10, the results obtained from Human Recombinant Laminin-511 are shown in Table 11, the results obtained from VTN-N (manufactured by Life Technologies) are shown in Table 12, and the results obtained from Vitronectin-XF (manufactured by Primorigen Biosciences) are shown in Table 13. In Tables 10 and 11, the number of cells is expressed as a relative value calculated by regarding the number of cells at the concentration of magnesium ascorbyl phosphate of 0.8 mmol/L as being 100. n=3.

[2] = tested on: human iPS cells; assay: Cell adhesiveness evaluation 2 (synthetic polypeptides added to cells seeded on natural vitronectin); assay type: cell-based; conditions: 100 μM synthetic polypeptide
Description: The polypeptides shown in Table 7 were synthesized by an Fmoc solid-phase synthesis method. A surface onto which natural vitronectin was adsorbed at a concentration of 130 pmol/cm^2 was prepared, and then a cell suspension to which 100 μM of the aforementioned synthetic polypeptides were added was seeded into wells at a ratio of 30,000 cells/well. The number of adhesive cells 24 hours after seeding was calculated in the same manner as in <Cell adhesiveness evaluation 1>, and the results are shown in Table 7. In Table 7, the cell adhesion rate is expressed as a relative value calculated by regarding the cell adhesion rate obtained by using a culture solution not containing the synthetic polypeptides as being 100%. n=3.

[3] = Evaluation of adsorbability with respect to culture dish; assay type: physicochemical; conditions: FIG. 1
Description: Each of the polypeptides obtained as above was diluted with a predetermined buffer such that they could be added to wells at a predetermined final concentration of 0 pmol/cm^2 to 200 pmol/cm^2. Thereafter, each of the polypeptides was added in an amount of 64 μL to a plasma-treated 96-well plate made of polystyrene (Tissue Culture-Treated, Falcon). Each of the polypeptides was allowed to adsorb onto the plate by being incubated for 2 hours at 37° C., and then the wells were washed twice with PBS, thereby obtaining surfaces coated with each of the polypeptides of RCP-1 to RCP-16.
Among the surfaces coated with each of the polypeptides obtained as above, the surfaces coated with RCP-1 and RCP-11 to RCP-16 were applied with 64 μL of a borate buffer and 64 μL of 1 N NaOH, followed by incubation for 24 hours at 80° C. and 100% humidity. After the resultant was air-cooled, 75 μL of a borate buffer was added to each well, and 50 μL of a reaction solution obtained by mixing OPA (o-phthalaldehyde: Wako Pure Chemical Industries, Ltd./methanol solution (160 mg/ml)) with N-acetyl-L-cysteine (NAC: Wako Pure Chemical Industries, Ltd.)/borate buffer solution (2 mg/ml) at a ratio of 1:100 (mass ratio) was further added thereto. After incubation for 30 minutes at 40° C., the fluorescence intensity thereof was measured by using an Envision Multilabel Counter (PerkinElmer Inc.) (excitation 355 nm/fluorescence 486 nm). A calibration curve was separately prepared from each of the polypeptide solutions so as to calculate the amount of the polypeptide adsorbed. In FIG. 1, a black rhombus indicates RCP-1, a black square indicates RCP-11, a black triangle indicates RCP-12, a black circle indicates RCP-13, a white rhombus indicates RCP-14, a white square indicates RCP-15, and a white triangle indicates RCP-16.

[4] = tested on: human iPS cells; assay: Evaluation of maintenance of undifferentiated state; assay type: cell-based
Description: iPS cells collected in the same manner as in <Cell adhesiveness evaluation 1> were suspended in TeSR2. The iPS cells were seeded into 6-well plate (Tissue culture-treated, Falcon), onto which each of the samples 1, 2, 5, 6, and 7 used in <Cell adhesiveness evaluation 1> was adsorbed in the same manner as in <Cell adhesiveness evaluation 1>, and cultured in a CO2 incubator at 37° C. Except for the day after the seeding, the medium was replaced every day. In the same method as described above, the cells were subcultured every six days. FIGS. 3A to 3E show forms of the iPS cells cultured on each of the samples.
After being cultured for 1 month under the conditions described above, the cells were immobilized using 4% paraformaldehyde and treated with 1% Triton-X/PBS so as to enhance the membrane permeability. After the cells were subjected to a blocking treatment using an Image IT Signal Enhancer (Invitrogen), an anti-human NANOG antibody (AF 1997, R&D Systems, Inc.), an Alexa Fluor 555 binding rabbit anti-goat IgG antibody (Invitrogen), and DAPI (Dojindo Molecular Technologies, Inc.) were added thereto for labeling, and the cells were imaged using a fluorescence microscope. FIGS. 4A to 4E show the fluorescence microscopic images.
FIGS. 3A and 4A show the iPS cells cultured on RCP-1; FIGS. 3B and 4B show the iPS cells cultured on RCP-11; FIGS. 3C and 4C show the iPS cells cultured on natural human vitronectin; FIGS. 3D and 4D show the iPS cells cultured on rLaminin-5; and FIGS. 3E and 4E show the iPS cells cultured on rLaminin-511. The scale bar in the images indicates 100 μm. In FIGS. 3A to 3E, the images on the left side are full images of the colony, and the images on the right side are magnified images. In FIGS. 4A to 4E, the images on the left side are images of the cells stained with DAPI, and the images on the right side are images of the cells stained with an anti-NANOG antibody. The scale bar in FIGS. 3 and 4 indicates 200 μm.

Laminin-511: recombinant laminin (Human Recombinant Laminin-511: BIOLAMINA AB), control
number of growing cells depending on the concentration of magnesium ascorbyl phosphate (in words) [1]: does not depend
Number of cells after 3 days (%) ([1]; magnesium ascorbyl phosphate 0.2 mmol/L, added amount 20 μg/cm^3, Table 11, relative to 0.8 mmol/L = 100): 61%
Number of cells after 3 days (%) ([1]; magnesium ascorbyl phosphate 0.5 mmol/L, added amount 20 μg/cm^3, Table 11, relative to 0.8 mmol/L = 100): 79%
Number of cells after 3 days (%) ([1]; magnesium ascorbyl phosphate 0.8 mmol/L, added amount 20 μg/cm^3, Table 11, reference = 100): 100%
Number of cells after 3 days (%) ([1]; magnesium ascorbyl phosphate 1.6 mmol/L, added amount 20 μg/cm^3, Table 11, relative to 0.8 mmol/L = 100): 90%
Number of cells after 3 days (%) ([1]; magnesium ascorbyl phosphate 3.7 mmol/L, added amount 20 μg/cm^3, Table 11, relative to 0.8 mmol/L = 100): 114%
Number of cells after 3 days (%) ([1]; magnesium ascorbyl phosphate 9.1 mmol/L, added amount 20 μg/cm^3, Table 11, relative to 0.8 mmol/L = 100): 100%
Number of cells after 3 days (%) ([1]; magnesium ascorbyl phosphate 18.1 mmol/L, added amount 20 μg/cm^3, Table 11, relative to 0.8 mmol/L = 100): 112%

EGFNVDKKCQCDELCSYYQS [Peptide-3, polypeptide synthesized by an Fmoc solid-phase synthesis method]
adhesion of cells to the natural vitronectin on addition of the peptide (in words) [2]: not hindered

RCP-14: recombinant polypeptide, human vitronectin positions 1-55 (GPLGDQESCKGRCTEGFNVDKKCQCDELCSYYQSCCTDYTAECKPQVTRGDVFTMPEDE; Synthetic Peptide RCP-14)
amount adsorbed onto the plate relative to the polypeptide including SEQ ID NO: 3 [3]: about 1/4

TAECKPQVTRGEVFTMPEDE [Peptide-8]
adhesion of cells to the natural vitronectin on addition of the peptide (in words) [2]: not hindered

TAECKPQVTRGDVFTMPEDE [Peptide-6, polypeptide synthesized by an Fmoc solid-phase synthesis method]
adhesion of cells to the natural vitronectin on addition of the peptide (in words) [2]: significantly hindered

CCTDYTAECKPQVTRGDVFT [Peptide-5, polypeptide synthesized by an Fmoc solid-phase synthesis method]
adhesion of cells to the natural vitronectin on addition of the peptide (in words) [2]: significantly hindered

DKKCQCDELCSYYQSCCTDY [Peptide-4, polypeptide synthesized by an Fmoc solid-phase synthesis method]
adhesion of cells to the natural vitronectin on addition of the peptide (in words) [2]: significantly hindered

DQESCKGRCTEGFNVDKKCQ [Peptide-1, polypeptide synthesized by an Fmoc solid-phase synthesis method]
adhesion of cells to the natural vitronectin on addition of the peptide (in words) [2]: not hindered

CCTDYTAECKPQVTRGEVFT [Peptide-7]
adhesion of cells to the natural vitronectin on addition of the peptide (in words) [2]: not hindered

KGRCTEGFNVDKKCQCDELC [Peptide-2, polypeptide synthesized by an Fmoc solid-phase synthesis method]
adhesion of cells to the natural vitronectin on addition of the peptide (in words) [2]: not hindered

B1: RCP-17: recombinant polypeptide, human vitronectin positions 1-55, 269-277, 295-341, 342-373, C274S (protein)
chain: MDQESCKGRCTEGFNVDKKCQCDELCSYYQSCCTDYTAECKPQVTRGDVFTMPEDESQEESEGSEDIFELLFWGRTSAGTRQPQFISRDWHGVPGQVDAAMAGRIYISGMAPRPSLAKKQRFRHRNRKGYRSQRGHSRGRNQN
modifications: Synthetic Peptide RCP-17
notes: recombinant polypeptide, human vitronectin positions 1-55, 269-277, 295-341, 342-373, C274S
number of growing cells depending on the concentration of magnesium ascorbyl phosphate (in words) [1]: increases
Number of cells after 3 days (%) ([1]; magnesium ascorbyl phosphate 0.2 mmol/L, added amount 100 μg/cm^3, 1×10^4 cells/well, relative to 0.8 mmol/L = 100): 114%
Number of cells after 3 days (%) ([1]; magnesium ascorbyl phosphate 0.5 mmol/L, added amount 100 μg/cm^3, 1×10^4 cells/well, relative to 0.8 mmol/L = 100): 98%
Number of cells after 3 days (%) ([1]; magnesium ascorbyl phosphate 0.8 mmol/L, added amount 100 μg/cm^3, 1×10^4 cells/well, reference = 100): 100%
Number of cells after 3 days (%) ([1]; magnesium ascorbyl phosphate 1.6 mmol/L, added amount 100 μg/cm^3, 1×10^4 cells/well, relative to 0.8 mmol/L = 100): 145%
Number of cells after 3 days (%) ([1]; magnesium ascorbyl phosphate 3.7 mmol/L, added amount 100 μg/cm^3, 1×10^4 cells/well, relative to 0.8 mmol/L = 100): 219%
Number of cells after 3 days (%) ([1]; magnesium ascorbyl phosphate 9.1 mmol/L, added amount 100 μg/cm^3, 1×10^4 cells/well, relative to 0.8 mmol/L = 100): 212%
Number of cells after 3 days (%) ([1]; magnesium ascorbyl phosphate 18.1 mmol/L, added amount 100 μg/cm^3, 1×10^4 cells/well, relative to 0.8 mmol/L = 100): 204%
Number of cells after 3 days (%) ([1]; magnesium ascorbyl phosphate 36.0 mmol/L, added amount 100 μg/cm^3, 1×10^4 cells/well, relative to 0.8 mmol/L = 100): 230%

B2: Natural vitronectin: human vitronectin (extracted from human serum, BD Biosciences), control (protein, listed as Homo sapiens)
chain: DQESCKGRCTEGFNVDKKCQCDELCSYYQSCCTDYTAECKPQVTRGDVFTMPEDEYTVYDDGEEKNNATVHEQVGGPSLTSDLQAQSKGNPEQTPVLKPEEEAPAPEVGASKPEGIDSRPETLHPGRPQPPAEEELCSGKPFDAFTDLKNGSLFAFRGQYCYELDEKAVRPGYPKLIRDVWGIEGPIDAAFTRINCQGKTYLFKGSQYWRFEDGVLDPDYPRNISDGFDGIPDNVDAALALPAHSYSGRERVYFFKGKQYWEYQFQHQPSQEECEGSSLSAVFEHFAMMQRDSWEDIFELLFWGRTSAGTRQPQFISRDWHGVPGQVDAAMAGRIYISGMAPRPSLAKKQRFRHRNRKGYRSQRGHSRGRNQNSRRPSRATWLSLFSSEESNLGANNYDDYRMDWLVPATCEPIQSVFFFSGDKYYRVNLRTRRVDTVDPPYPRSIAQYWLGCPAPGHL
form of the iPS cell colony ([4]; FIGS. 3A to 3E, TeSR2, subcultured every six days): form specific to undifferentiated cells
maintenance of the undifferentiated state (NANOG staining) ([4]; FIGS. 4A to 4E, after culture for 1 month): strongly expressed NANOG in the entirety of the colony
